What was measured:
[1] = Solubility of Clotrimazole in water / methanol, dark field microscopy; type: physicochemical
Source text: The methanol solution was then mixed with 1% cellulose gel (treatment) and water (positive control). All samples were examined under a dark field microscope.

[2] = cited from earlier work
[3] = Dye release from crystalline cellulose gel to liquid phase (visual and spectrophotometric); type: physicochemical; settings: for release pattern from crystalline cellulose gel (very slow, slow, fast, very fast): categorised from absorbance in the liquid phase, 0-72 hours; for dye release to liquid phase, absorbance: over 72 hours, 10 ml RO water over gel, at absorbance maximum of dye, 4 AU = saturation; for colour of solution above the precipitate after 72 hours (dye diffusion out of cellulose crystals): 72 hours at room temperature (approximately 21-22° C.), visual
Protocol: Approximately 2 ml aliquots of 3% w/v crystalline cellulose gel samples containing small solid cellulose crystals were thoroughly mixed with respective model dye solutions and incubated for 30 minutes at room temperature. The stained samples where then centrifuged. The supernatant was decanted, and the pellets containing crystalline cellulose were washed several times with reverse osmosis water and centrifuged. The cycles of washing and centrifugation were repeated until water in which cellulose gel was suspended was clear. After the final wash, small samples of each gel were taken for microscopic examination, and the gels in each tube were covered with a 10 ml column of RO water. These preparations served as media for monitoring the rate of dye release from crystalline cellulose gel to the surrounding liquid phase. Following a few minutes of sample equilibration, 500 μl of the liquid phase was withdrawn from each preparation for spectroscopic measurements to establish absorbance values at time 0. Subsequently, 500 μl samples of the liquid phase were collected at 2, 6, 12, 24, 48, and 72 hour intervals for monitoring of dye release to the liquid phase from the cellulose matrix over time.

[4] = 1 mg per ml, dark field microscope

Row | solubility in methanol [1, 4] | solubility in water [1, 4] | behaviour of methanol solution mixed with water ([1]; methanol solution 1 mg per ml mixed with water) | SMILES | solubility in organic solvents (known property) [2] | solubility in water (known property) [2] | release pattern from crystalline cellulose gel (very slow, slow, fast, very fast) [3] | dye release to liquid phase, absorbance [3] [AU] | colour of solution above the precipitate after 72 hours (dye diffusion out of cellulose crystals) [3]
1 | totally dissolved in methanol | not soluble in water | fine crystals precipitated | Clc1ccccc1C(c1ccccc1)(c1ccccc1)n1ccnc1 [Clotrimazole] | soluble in acetone, chloroform, methanol and ethanol | practically insoluble in water |  |  | 
2 |  |  |  | CCN(CC)c1ccc(C(=C2C=CC(=[N+](CC)CC)C=C2)c2ccccc2)cc1 [brilliant green, Brilliant Green] |  |  | very fast | 4 | 
3 |  |  |  | Nc1c(/N=N/c2ccc(-c3ccc(/N=N/c4cc(S(=O)(=O)[O-])c5ccccc5c4N)cc3)cc2)cc(S(=O)(=O)[O-])c2ccccc12.[Na+].[Na+] [congo red, Congo Red] |  |  | slow | 0.128 | diffused out of the precipitated cellulose crystals
4 |  |  |  | Oc1cc2c(cc1O)[C@@H]1c3ccc(O)c(O)c3OC[C@]1(O)C2 [haematoxylin, Hematoxilin] |  |  | slow | 0.09 | diffused out of the precipitated cellulose crystals
5 |  |  |  | CCN(Cc1cccc(S(=O)(=O)[O-])c1)c1ccc(C(=C2C=CC(=[N+](CC)Cc3cccc(S(=O)(=O)O)c3)C=C2)c2ccc(S(=O)(=O)O)cc2)cc1 [light green, Light Green] |  |  | very fast | 4 | 
6 |  |  |  | CN(C)c1ccc(C(=C2C=CC(=[N+](C)C)C=C2)c2ccccc2)cc1.[Cl-] [malachite green, Malachite Green] |  |  | slow | 0.32 | 
7 |  |  |  | CN(C)c1ccc2nc3ccc(=[N+](C)C)cc-3sc2c1 [methylene blue, Methylene Blue] |  |  | very slow | 0.025 | slight bluish hue
8 |  |  |  | Cc1cc2nc3cc(C)c(N)cc3[n+](-c3ccccc3)c2cc1N [safranine, Safranine] |  |  | slow | 0.08 | slight pinkish hue
